From article PMC11513842, “Development of an orally bioavailable CDK12/13 degrader and induction of synthetic lethality with AKT pathway inhibition” (Cell Reports Medicine, 2024)
Where two headings read alike, the source gives them in different places.

Legend:
PC310 organoids = test: PC310 organoid viability dose-response; assay type: cell-based; conditions: Homo sapiens, Figure S1J
[1] = system: benign immortalized cell lines (PrEC, WPMY-1, BPH-1, RWPE1, PNT2, MCF10A, MCF12A); test: Cell viability, benign immortalized cell lines; assay type: cell-based; conditions: Homo sapiens, 120 h; most benign immortalized cell lines, 5 days; read-out: half-maximal inhibitory concentration [IC50]
Description: (§1) Cells were seeded in 96-well plates and incubated at 37°C with 5% CO2 overnight. A series of compound dilutions were added into the cells. After 5 days incubation, cell proliferation was tested using the CellTiter-Glo assay (Promega) according to the manufacturer’s protocol. Luminescence was measured using the Infinite M1000 Pro plate reader (Tecan). Data analysis was conducted using GraphPad Prism software.

MFM223 = test: Cell viability assay (CellTiter-Glo, 5 days); assay type: cell-based; conditions: Homo sapiens, MFM-223, 120 h; MFM223, 5 days of treatment, Figure 1F
Description: as §1

PrEC = test: Cell viability assay (CellTiter-Glo, 5 days); assay type: cell-based; conditions: Homo sapiens, 120 h, 5 days of treatment, Figure 1F
Description: as §1

DU145 = test: Cell viability assay (CellTiter-Glo, 5 days); assay type: cell-based; conditions: Homo sapiens, DU-145, 120 h; DU145, 5 days of treatment, Figure 1F
Description: as §1

RWPE1 = test: Cell viability assay (CellTiter-Glo, 5 days); assay type: cell-based; conditions: Homo sapiens, RWPE-1; RWPE, dose-response curve, Figure 3A
Description: as §1

PNT2 = test: Cell viability assay (CellTiter-Glo, 5 days); assay type: cell-based; conditions: Homo sapiens, 120 h; PNT2, 5 days of treatment, Figure 1F
Description: as §1

CWR22RV1 = test: Cell viability assay (CellTiter-Glo, 5 days); assay type: cell-based; conditions: Homo sapiens, 120 h; CWR22RV1, 5 days of treatment, Figure 1F
Description: as §1

PC3 = test: Cell viability assay (CellTiter-Glo, 5 days); assay type: cell-based; conditions: Homo sapiens, PC-3, 120 h; PC3, 5 days of treatment, Figure 1F
Description: as §1

MDA-MB-468 = test: Cell viability assay (CellTiter-Glo, 5 days); assay type: cell-based; conditions: Homo sapiens, 120 h; MDA-MB-468, 5 days of treatment, Figure 1F
Description: as §1

22RV1 = test: Cell viability assay (CellTiter-Glo, 5 days); assay type: cell-based; conditions: Homo sapiens
Description: as §1

LAPC4 = test: Cell viability assay (CellTiter-Glo, 5 days); assay type: cell-based; conditions: Homo sapiens
Description: as §1

SK-BR-3 = test: Cell viability assay (CellTiter-Glo, 5 days); assay type: cell-based; conditions: Homo sapiens, 120 h; SK-BR-3, 5 days of treatment, Figure 1F
Description: as §1

BPH-1 = test: Cell viability assay (CellTiter-Glo, 5 days); assay type: cell-based; conditions: Homo sapiens; BPH-1, dose-response curve, Figure 3A
Description: as §1

WPMY-1 = test: Cell viability assay (CellTiter-Glo, 5 days); assay type: cell-based; conditions: Homo sapiens, 120 h; WPMY-1, 5 days of treatment, Figure 1F
Description: as §1

MCF10A = test: Cell viability assay (CellTiter-Glo, 5 days); assay type: cell-based; conditions: Homo sapiens, MCF-10A, 120 h, 5 days of treatment, Figure 1F
Description: as §1

MCF12A = test: Cell viability assay (CellTiter-Glo, 5 days); assay type: cell-based; conditions: Homo sapiens, MCF-12A, 120 h, 5 days of treatment, Figure 1F
Description: as §1

MCF7 = test: Cell viability assay (CellTiter-Glo, 5 days); assay type: cell-based; conditions: Homo sapiens, 120 h; MCF7, 5 days of treatment, Figure 1F
Description: as §1

CDK12 and CDK13 = conditions: VCaP cells
Description: After treatment of varying conditions, cell lysates were prepared using RIPA buffer (ThermoFisher Scientific) supplemented with cOmplete protease inhibitor cocktail tablets (Sigma-Aldrich). The Pierce BCA Protein Assay Kit ([…]) was used to determine the protein concentrations. Proteins with an equal amount from each sample were loaded on NuPAGE 3–8% Tris-Acetate or 4–12% Bis-Tris protein gels (ThermoFisher Scientific) and subsequently transferred to membranes, which were blocked using 5% nonfat milk. Following blocking at room temperature for 1 h, the membrane was further incubated with varying primary antibodies at 4°C overnight. HRP-conjugated secondary antibodies were used for detection, and membrane imaging was conducted using an Odyssey Fc Imager (LI-COR Biosciences).

VCaP cells [2] = test: Comet assay; assay type: cell-based, human; conditions: 100 nM, 12 h
Description: VCaP cells were seeded in 6-well plates one day prior to treatment. […] After 12 h incubation, the cells were trypsinized and resuspended at a concentration of 1 × 10^5 cells/mL in ice-cold PBS. The OxiSelect Comet Assay Kit (Cell Biolabs, STA-351) was used to assess DNA damage. Following the manufacturer’s protocol, cells were combined with pre-heated comet agarose at a 1:10 ratio, mixed thoroughly, and then transferred onto slides. The slides were incubated horizontally in the dark at 4°C for 20 min. Afterward, they were immersed in pre-chilled lysis buffer for 40 min at 4°C in the dark, followed by a 30-min incubation in pre-chilled alkaline solution at 4°C in the dark. Electrophoresis was then performed using alkaline solution at 30 V for 20 min. After electrophoresis, the slides were rinsed three times with pre-chilled deionized water, following with 70% ethanol for 5 min and completely dried at 37°C for 30 min. Subsequently, 100 μL of diluted Vista Green DNA dye was applied to each well. After 15 min incubation at room temperature, the comets were observed using a fluorescence microscope and quantified using ImageJ. The quantification figure was generated using GraphPad Prism software.

VCaP cells [3] = test: Cell viability assay (CellTiter-Glo, 5 days); assay type: cell-based, human; conditions: Homo sapiens, VCaP
Description: as §1

## O=C1CCC(N2C(=O)c3cccc(OCC(=O)N4CCN(c5ccc(N(C(=O)NCc6ccccc6)C6CCC(Nc7ncc8ccccc8n7)CC6)cc5)CC4)c3C2=O)C(=O)N1 (stereo not shown) [YJ9069]
PC310 organoids
  IC50: 107 nM
[1]
  IC50: > 10000 nM
MFM223
  IC50: 44.2 nM
PrEC
  IC50: > 10000 nM
DU145
  IC50: > 10000 nM
RWPE1
  IC50: > 10000 nM
PNT2
  IC50: > 10000 nM
CWR22RV1
  IC50: 428 nM
PC3
  IC50: 2390 nM
MDA-MB-468
  IC50: 678 nM
22RV1; 120 h, 22RV1, 5 days of treatment, Figure 1F
  IC50: 90.3 nM
22RV1; 22RV1, dose-response curve, Figure 3A
  IC50: 144 nM
LAPC4; 120 h, LAPC4, 5 days of treatment, Figure 1F
  IC50: 152 nM
LAPC4; LAPC4, dose-response curve, Figure 3A
  IC50: 109 nM
SK-BR-3
  IC50: 1280 nM
BPH-1
  IC50: > 10000 nM
WPMY-1
  IC50: > 10000 nM
MCF10A
  IC50: > 10000 nM
MCF12A
  IC50: > 10000 nM
MCF7
  IC50: 1740 nM
CDK12 and CDK13
  CDK12/13 degradation (immunoblot): enhanced degradation of both CDK12 and CDK13 proteins compared to 7f
VCaP cells [2]
  DNA damage (tail moment): significant increase in the tail moment
VCaP cells [3]; 120 h, VCaP cells, 5 days, Figure 4C, read-out: IC50
  IC50: 22.2 nM
VCaP cells [3]; 120 h, VCaP cells, 5 days, Figure S1E, read-out: IC50
  IC50: 44 nM
VCaP cells [3]; VCaP cell viability, linker optimization, Figure S4B, read-out: VCaP IC50
  IC50: 22.9 nM
